From patent US8124647B2 (priority 2002, dated 2012) come the findings set out here.

Where only a bound is given, the exact number is not on record here.

Assay [1] deals with T1, human androgen receptor (Homo sapiens, UniProt P10275).
T1 construct: expressed in transfected cells; host or cells: CHO cells, cell line CHO-AR-pMMTV-LUC 1G12-A5-CA
T1 sequence (P10275 1-920): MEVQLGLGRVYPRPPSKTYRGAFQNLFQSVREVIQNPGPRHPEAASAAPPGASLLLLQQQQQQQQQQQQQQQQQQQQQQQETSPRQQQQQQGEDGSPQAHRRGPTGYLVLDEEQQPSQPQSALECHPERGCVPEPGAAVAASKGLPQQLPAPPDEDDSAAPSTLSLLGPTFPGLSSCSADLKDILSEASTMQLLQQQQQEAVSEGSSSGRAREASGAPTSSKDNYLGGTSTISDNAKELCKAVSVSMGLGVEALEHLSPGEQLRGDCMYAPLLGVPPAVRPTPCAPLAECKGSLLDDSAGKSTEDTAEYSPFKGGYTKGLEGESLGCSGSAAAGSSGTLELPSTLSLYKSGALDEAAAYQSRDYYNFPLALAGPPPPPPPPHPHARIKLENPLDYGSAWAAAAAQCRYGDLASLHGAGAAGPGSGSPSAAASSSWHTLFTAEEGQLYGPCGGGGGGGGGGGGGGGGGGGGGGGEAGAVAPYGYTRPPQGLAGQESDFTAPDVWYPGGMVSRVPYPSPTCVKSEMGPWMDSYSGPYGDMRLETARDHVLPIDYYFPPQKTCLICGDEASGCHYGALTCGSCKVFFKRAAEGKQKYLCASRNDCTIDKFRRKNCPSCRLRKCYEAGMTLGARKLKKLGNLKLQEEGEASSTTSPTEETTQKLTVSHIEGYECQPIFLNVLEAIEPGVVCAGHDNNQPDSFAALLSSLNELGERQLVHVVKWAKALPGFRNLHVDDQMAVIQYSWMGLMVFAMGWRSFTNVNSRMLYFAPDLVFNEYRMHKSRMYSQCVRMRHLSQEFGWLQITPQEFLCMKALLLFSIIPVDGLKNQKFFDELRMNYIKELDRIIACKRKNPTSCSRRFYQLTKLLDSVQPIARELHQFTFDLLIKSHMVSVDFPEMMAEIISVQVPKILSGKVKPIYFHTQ
The experiment in a line: cell-based. The conditions noted are these: antiandrogenic activity, in the presence of 1 nM DHT; read-out: ant EC50. As to the method: (§1) Compounds were tested for their Androgen Receptor activity in a transactivation assay and in a binding assay.
(§2) The (anti-)androgenic activity of test compounds (EC50 and intrinsic activity) was determined in an in vitro bioassay of Chinese hamster ovary (CHO) cells stably transfected with the human androgen receptor expression plasmid and a reporter plasmid in which the MMTV-promoter is linked to the luciferase reporter gene. The cell-line CHO-AR-pMMTV-LUC 1G12-A5-CA is described in Schoonen et al. (2000), Journal of Steroid Biochemistry and Molecular Biology 74(4):213-222. The antiandrogenic activity of a test compound was determined by the inhibition of the transactivation via the androgen receptor of the enzyme luciferase in the presence of 1 nM DHT (5α-dihydrotestosterone, 17β-hydroxy-5α-androstan-3-one). Intrinsic activity of antiandrogenic activity was determined in the presence of the reference antiandrogen 2-Hydroxy-2-methyl-N-(4-nitro-3-trifluoromethyl-phenyl)-propionamide(Hydroxyflutamide), and set at 100%. For androgenic activity, maximal intrinsic activity in the presence of 100 nM DHT was set at 100%.

The target of assay [2] is T1, human androgen receptor. Description: androgenic activity (EC50 and intrinsic activity), transactivation bioassay in CHO-AR-pMMTV-LUC cells (Table 4). The conditions noted are these: androgenic activity, read-out: ago EC50. The assay is classed as cell-based. As to the method: as §1, §2

`CC(C)NC(=O)c1ccc2c(Sc3ccccc3[N+](=O)[O-])cn(Cc3cc(F)cc(F)c3)c2c1` [Compound 46]: the EC50 on human androgen receptor [1] and at human androgen receptor [2] was 5 to 100 nM each time.
For `COc1ccc2c(Sc3ccccc3[N+](=O)[O-])cn(Cc3cc(F)cc(C(F)(F)F)c3)c2c1` [Compound 69], the EC50 (as a rule, the concentration that produces a half-maximal response) at human androgen receptor [1] is more than 10000 nM; at human androgen receptor [2], 5 to 100 nM.
For the molecule `O=C(NC1CC1)c1ccc2c(Sc3ccccc3[N+](=O)[O-])cn(Cc3cc(F)cc(F)c3)c2c1` [Compound 44], the EC50 on human androgen receptor [1] is more than 10000 nM; on human androgen receptor [2], less than 5 nM.
Regarding `Nc1ccc2c(Sc3ccccc3[N+](=O)[O-])cn(Cc3cc(F)cc(F)c3)c2c1` [Compound 57, 1-(3,5-Difluoro-benzyl)-3-(2-nitro-phenylsulfanyl)-1H-indol-6-ylamine], the EC50 at human androgen receptor [1] was more than 10000 nM; on human androgen receptor [2] it was less than 1000 nM.
In the same order, the values of `COC(=O)c1ccccc1Sc1cn(Cc2cc(F)cc(F)c2)c2cc(OC)ccc12` [Compound 19, 2-[1-(3,5-Difluoro-benzyl)-6-methoxy-1H-indol-3-ylsulfanyl]-benzoic acid methyl ester] are more than 10000 nM and less than 1000 nM.
Turning to `COc1ccc2c(Sc3ccccc3[N+](=O)[O-])cn(Cc3ccccc3)c2c1` [Compound 92], the EC50 on human androgen receptor [1] is more than 10000 nM; on human androgen receptor [2], less than 5 nM.
As for `CN(C)C(=O)c1ccc2c(Sc3ccccc3[N+](=O)[O-])cn(Cc3cc(F)cc(F)c3)c2c1` [Compound 49], the EC50 at human androgen receptor [1] was more than 10000 nM; at human androgen receptor [2] it was less than 5 nM.
As for `COc1ccc2c(Sc3ccccc3[N+](=O)[O-])cn(Cc3cc(F)cc(F)c3)c2c1` [Compound 63, 1-(3,5-Difluoro-benzyl)-6-methoxy-3-(2-nitro-phenylsulfanyl)-1H-indole], the values for the EC50 on human androgen receptor [1] and on human androgen receptor [2] were more than 10000 nM and less than 5 nM, respectively.
In the same order, the values of `COc1ccc2c(Sc3ccccc3[N+](=O)[O-])cn(Cc3cccc(C(F)(F)F)c3)c2c1` [Compound 78] are more than 10000 nM and 5 to 100 nM.
Take `COc1ccc(Cn2cc(Sc3ccccc3[N+](=O)[O-])c3ccc(OC)cc32)cc1` [Compound 84]: the EC50 was 1000 to 10000 nM on human androgen receptor [1] and less than 1000 nM on human androgen receptor [2].
In the same order, the values of `COc1ccc2c(Sc3ccccc3C#N)cn(Cc3cc(F)cc(F)c3)c2c1` [Compound 20, 2-[1-(3,5-Difluoro-benzyl)-6-methoxy-1H-indol-3-ylsulfanyl]-benzonitrile] are more than 10000 nM and 5 to 100 nM.
With `COc1ccc2c(Sc3ccccc3[N+](=O)[O-])cn(Cc3ccc(C)cc3)c2c1` [Compound 85], the concentration giving a half-maximal response (EC50) is more than 10000 nM at human androgen receptor [1] and less than 1000 nM on human androgen receptor [2].
In the same order, the values of `NC(=O)c1ccc2c(Sc3ccccc3[N+](=O)[O-])cn(Cc3cc(F)cc(F)c3)c2c1` [Compound 33, 1-(3,5-Difluoro-benzyl)-3(2-nitro-phenylsulfanyl)-1H-indole-6-carboxylic acid amide] are more than 10000 nM and less than 5 nM.
In the case of `O=C(NCCO)c1ccc2c(Sc3ccccc3[N+](=O)[O-])cn(Cc3cc(F)cc(F)c3)c2c1` [Compound 37], the EC50 at human androgen receptor [1] is more than 10000 nM; at human androgen receptor [2], less than 5 nM.
In the same order, the values of `O=[N+]([O-])c1ccccc1Sc1cn(Cc2cc(F)cc(F)c2)c2cc(F)ccc12` [Compound 50] are more than 10000 nM and 5 to 100 nM.
In the same order, the values of `O=C(O)c1ccc2c(Sc3ccccc3[N+](=O)[O-])cn(Cc3cc(F)cc(F)c3)c2c1` [Compound 30, 1-(3,5-Difluoro-benzyl)-3-(2-nitro-phenylsulfanyl)-1H-indole-6-carboxylic acid] are more than 10000 nM and less than 1000 nM.
For the molecule `COc1ccc2c(Sc3ccccc3[N+](=O)[O-])cn(Cc3cccc(C)c3)c2c1` [Compound 73], the values for the EC50 at human androgen receptor [1] and on human androgen receptor [2] were more than 10000 nM and 5 to 100 nM, respectively.
Take `O=C(NCc1cccnc1)c1ccc2c(Sc3ccccc3[N+](=O)[O-])cn(Cc3cc(F)cc(F)c3)c2c1` [Compound 35]: the EC50 was more than 10000 nM at human androgen receptor [1] and 5 to 100 nM at human androgen receptor [2].
